Laboratory results published in paper PMC12052742, “Engineering a newly identified alcohol dehydrogenase from Sphingobium Sp. for efficient utilization of nicotinamide cofactors biomimetics” (Bioresources and Bioprocessing, 2025).

Columns and labels:
SpADH2 variant A290V = test: Activity of variant in oxidation of syringyl alcohol with p-BANA^+ (Fig. 5), A290V; assay type: biochemical, Sphingobium sp. SYK-6; settings: cofactor p-BANA^+, substrate syringyl alcohol
Experimental: (§1) In the first round of screening, saturation mutagenesis was constructed for six positions (W114, T177, G172, G316, A47, and R227). […] Therefore, in the second round of mutagenesis, six additional sites within the 5 Å range of the cofactor ribose (H43, V202, T265, V288, G289, and A290) were selected for saturation mutagenesis screening (Fig. 6c and Fig. S6). Three beneficial mutations were identified. […] Subsequently, combinatorial mutagenesis was performed, resulting in 11 double variants and 3 triple variants.
(§2) Fig. 5 Relative activity of SpADH2 and its variants in oxidation of syringyl alcohol when utilizing p-BANA^+ as cofactor
(§3) In preliminary screening by spectrophotometric analysis, PBS (pH 7.5) buffer (50 µL) in a 96-well plate was pre-warmed at 30°C for 15 min, and a final concentration of 5 mM p-BANA^+ and 1 mM substrate syringyl alcohol were added, and 50 µL of crude enzyme were add to each well to start the reaction, with WT as control. The reaction mixture was incubated at 30°C for 1 h, followed by addition of fluorescent probes in a final concentration of 0.2 mM, and was subjected to determination under 537 nm as described above.

[1] = tested on: SpADH2 variant H43L/A290I; test: Substrate kinetic assay, H43L/A290I; assay type: biochemical, Sphingobium sp. SYK-6
Experimental: (§4) Specific activity of SpADH2 in substrate spectrum study was measured spectrophotometrically. PBS (pH 7.5) buffer was pre-heated at 30°C for 15 min. For NAD^+, 0.05 µg SpADH2 was added to the PBS buffer (100 µL), and a final concentration of 2 mM NAD^+ was added. For tsNCBs cofactor p-BANA^+, 5 µg SpADH2 and a final concentration of 7.5 mM p-BANA^+ was added. The mixture was carried out in a 96-well microplate, and a final concentration of 5 mM substrate was added to start the reaction. The microplate was incubated in 30°C for 1 h. Florescent probes (2-[2-(1,4-dihydro-1-methyl-3-quinolinyl)ethenyl]-1,3,3-trimethyl-3H-indolium) in a final concentration of 0.2 mM (100 µL) was added (Scheme S1), and the microplate was placed in a microplate reader immediately for measurement under 537 nm (Fomin et al. [2016]).
(§5) Kinetic analysis of SpADH2 and its variants were carried out following Michaelis-Menten equation or Michaelis-Menten excess substrate inhibition equation. For of the substrate kinetic assays, concentrations of cofactors were fixed at 5 mM for NAD^+ and 7.5 mM for p-BANA^+. For cofactor kinetic assays, the concentration of 1a was fixed at 5 mM.
(§6) Specific activity was determined spectrophotometrically as above except that gradient 1a (0−20 mM) or cofactor (0−35 mM) concentrations were applied.
(§7) Cofactor specificity ratio (CSR) represents the ratio of catalytic efficiency of p-BANA^+ to NAD^+ for each enzyme, and relative specificity (RS) stands for the CSR ratio of variants to WT (King et al. [2020]).

SpADH2 WT = SpADH2 WT (Sphingobium sp. SYK-6, UniProt G2IIZ8); test: Cofactor kinetic assay, WT; assay type: biochemical
SpADH2 WT, sequence (G2IIZ8 1-372): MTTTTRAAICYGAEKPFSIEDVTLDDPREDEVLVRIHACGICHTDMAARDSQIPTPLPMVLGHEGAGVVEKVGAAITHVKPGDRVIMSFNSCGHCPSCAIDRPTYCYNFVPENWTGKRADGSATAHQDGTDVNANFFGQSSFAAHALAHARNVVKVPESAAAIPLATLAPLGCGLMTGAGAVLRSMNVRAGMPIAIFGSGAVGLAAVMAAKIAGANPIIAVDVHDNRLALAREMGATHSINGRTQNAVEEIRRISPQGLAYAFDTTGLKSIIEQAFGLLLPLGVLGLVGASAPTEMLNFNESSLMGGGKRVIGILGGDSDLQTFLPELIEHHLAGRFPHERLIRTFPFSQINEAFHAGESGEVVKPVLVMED
Experimental: as §4, §5, §6, §7

SpADH2 variant H43L = test: Activity of variant in oxidation of syringyl alcohol with p-BANA^+ (Fig. 5), H43L; assay type: biochemical, Sphingobium sp. SYK-6; settings: cofactor p-BANA^+, substrate syringyl alcohol
Experimental: as §1, §2, §3

SpADH2 variant A47G = test: Activity of variant in oxidation of syringyl alcohol with p-BANA^+ (Fig. 5), A47G; assay type: biochemical, Sphingobium sp. SYK-6; settings: cofactor p-BANA^+, substrate syringyl alcohol
Experimental: as §1, §2, §3

[2] = substrate kinetics, cofactor = label

NC(=O)c1ccc[n+](Cc2ccc(C(=O)O)cc2)c1 [p-BANA^+, para-3-carbamoyl-1-(4-carboxybenzyl)pyridin-1-ium]
fold increase in activity vs WT (SpADH2 variant A290V): 3 fold | kcat ([1]; 1a varied, cofactor (= label) fixed: 5 mM NAD^+ or 7.5 mM p-BANA^+): 6.8 ± 1.6 min^− 1 | Cofactor specificity ratio (catalytic efficiency of p-BANA^+ to NAD^+) ([1]; substrate kinetics): 0.1026 | fold increase in kcat vs WT [1, 2]: 6 fold | reduce in Km value vs WT [1, 2]: 30% | Relative specificity (CSR ratio of variant to WT) ([1]; substrate kinetics, in text as fold improvement in CSR): 6750 | kcat (SpADH2 WT; cofactor (= label) varied, 1a fixed at 5 mM): 1.6 ± 0.5 min^− 1 | Ki (SpADH2 WT; cofactor (= label) varied, 1a fixed at 5 mM, read-out: Ki (cofactor inhibition)): 12 ± 4.7 mM | Cofactor specificity ratio (catalytic efficiency of p-BANA^+ to NAD^+) (SpADH2 WT; cofactor kinetics): 3.81×10^-5 | fold increase in activity vs WT (SpADH2 variant H43L): 2 fold | fold higher activity than WT (SpADH2 variant A47G): 1.3 fold
